The values below come from patent publication US20230346735A1, “Nutritional Composition Comprising Carnitine and Method for Treating or Preventing an Infection in a Mammal” (priority 2020, published 2023).

Molecules are shown by their SMILES.

For data set [1], the system named is TMPRSS2. As to the kind of experiment: TMPRSS2 protein and mRNA in rat tissue samples. It is filed as in vivo. The conditions noted are these: exercised rats. The source says:
After a week of the adaptation period, the rats were divided into eight equal groups containing seven rats each. The initial body weights of the rats were similar in all the groups (214.53 grams ± 4.67; P > 0.05).
Groups 1 and 2 were not subjected to an exercise routine. Groups 3-8 were subjected to an exercise regimen consisting of a week training period with an incremental exercise capacity described below. After the week training period the exercise regimen followed was each rat in Groups 3-8 were subjected to 6 weeks of running at 25 m/min during 45 min […]. […] These correspond to 0, 250, 500, 1000, 2000 and 4000 mg per day for humans, respectively.
To determine the protein accumulation in the liver, muscle and lung samples, a Western Blotting test was used. Each of the tissue samples of the same group were pooled, homogenized, and sonicated in lysis buffer supplemented with 1X protease and phosphatase inhibitor cocktail (#5872, Cell Signaling). Total protein content was detected with Qubit 2.0 Fluorometer according to the manufacturer’s protocol (Invitrogen, Life Technologies Corporation, Carlsbad, CA, USA). […] Protein levels were analyzed densitometrically using an image analysis system (Image J; National Institute of Health, Bethesda, MD, USA), corrected with values determined on β-actin blots and expressed as relative values compared with the control group. […]

Data set [2] relates to Calu-3 cells. The class given is cell-based, human. Conditions: Calu-3, 50 uM to 10 mM, 24 h, 48 h or 72 h. How it is done: Calu-3 cells were maintained in 50% DMEM (Dulbecco’s Modified Eagle Medium) + 50% Ham’s F12 media supplemented with 10% FBS (fetal bovine serum) and 1% penicillin/streptomycin. Vero E6 cells were maintained in DMEM media supplemented with 10% FBS and 1% penicillin/streptomycin.
Calu-3 seeded in a 96-well plate (30,000 cells) were stimulated with 50 uM, 100 uM, 250 uM, 500 uM, 1 mM and 10 mM Carnitine alone. At 24 h, 48 h or 72 h post stimulation, media was removed and cells were subjected to a standard MTT assay.

In data set [3] the test system is Furin. As to the kind of experiment: Furin mRNA expression in Calu-3, RT real-time PCR. It is filed as cell-based, human. The conditions noted are these: Calu-3, 50 to 1,000 uM, 24 hr pre-treatment.
Data set [4] has as its system ACE-2. As to the kind of experiment: ACE-2 surface protein in Calu-3 cells, flow cytometry. The class given is cell-based, human. The conditions noted are these: Calu-3, 100 uM, 24-hr pre-treatment. The protocol: ACE-2 surface expression protein in Calu-3 cells was evaluated using FACS flow cytometry sorting. […] Cells were detached with PBS/EDTA at room temperature. FBS-containing growth media was added to cells to inactivate TE. Cells were spun for 5 min at […]. Supernatant was removed and cells were washed twice in flow buffer (PBS+0.2% FBS). Between 100,000-200,000 cells were stained for ACE-2 and BST2 (absent in Calu-3and used as a control) for 30 min on ice using goat anti-ACE-2 (R&D Systems; AF933) and PE-conjugated BST2 (BioLegend; Cat # 348406). Cells were washed once and stained with Alexa Fluor 647 donkey anti-goat for 30 min on ice. Cells were washed once, resuspended in PBS/EDTA and samples were acquired on a FACS LSR Fortessa cytometer (BD Bioscience). Data were analyzed using Flowjo (Version 10.1).
The testing was repeated with D-Carnitine as well. Cells were either stained for ACE2 using either anti-ACE2 Ab, anti-BST2 Ab or the combination or both followed by secondary Ab isotype. […] The table represents the fluorescence counts.

In the case of `C[N+](C)(C)C[C@H](O)CC(=O)[O-]` [L-carnitine], the “TMPRSS2 mRNA levels” value in data set [1] (tissues, versus exercise control) is reported as “dose-dependent decrease”. Further, in data set [1] (western blotting), the TMPRSS2 protein level result is listed as “return to the baseline control”. In data set [2], the “cytotoxicity (MTT)” value is reported as “did not show any cytotoxic properties”. Besides, in data set [3], the Furin expression levels entry is “did not show any effect”. Further, the “decrease in the ACE-2 protein at the cell surface” value in data set [4] is “about 75%”.
